Results reported in patent publication US9603905B2, “Intranasal insulin administration for the minimization of anesthesia-induced memory loss” (priority 2014, dated 2017).
Where two headings read alike, the source gives them in different places.

What was measured:
[1] = Method: (§1) The 3xTg-AD mice and WT mice (female, 9 months old) used for the present study were habituated to handling for 14 days prior to the experiment. Female mice were used because the female 3xTg-AD mice develop behavioral deficits faster than the male mice. The selection of the age of 9 months was because the 3xTg-AD mice at this age show neurogenic and neuroplastic deficits but no NFTs or amyloid plaques and are cognitively impaired. Intranasal delivery was carried out manually without anesthesia while the mouse head was restrained in a supine position with the neck in extension, as described. A total of 1.75 U/17.5 μl insulin or 0.9% saline (Veh 1) was delivered over both nares alternatively using a 10 μl Eppendorf pipetter. The mouse was held for an additional 5-10 seconds to ensure the fluid was inhaled. […] All mice were treated with insulin or, as a control, saline daily for 7 consecutive days. […] The brains were removed immediately, and the rostral halves (separated coronally at the bregma level) of the mouse brains were dissected, flash frozen in dry ice, and stored at −80° C. for biochemical analyses at a later date.
Hypothermia is known to be a major factor underlying anesthesia-induced tau hyperphosphorylation. Therefore, the rectal temperature of the mice was determined.

[2] = tested on: tau protein kinases (GSK-3β, MAPK/ERK, cdk5, CaMKII, JNK); format: in vivo
Method: as §1
Mouse brain tissue was homogenized in pre-chilled buffer containing 50 mM Tris-HCl (pH 7.4), 50 mM GlcNAc, 20 μM UDP, 2.0 mM EGTA, 2 mM Na3VO4, 50 mM NaF, 20 mM Glycero-phosphate, 0.5 mM AEBSF, 10 μg/ml aprotinin, 10 μg/ml leupeptin, and 4 μg/ml pepstatin A. Protein concentrations of the homogenates were determined by using modified Lowery method. The samples were resolved in 10% or 12.5% SDS-PAGE and electro-transferred onto Immobilon-P membrane (Millipore, Bedford, Mass., USA). The blots were then probed with primary antibody and developed with the corresponding horseradish peroxidase-conjugated secondary antibody and ECL kit (Pierce, Rockford, Ill.). Densitometrical quantification of protein bands in Western blots were analyzed by using the TINA software (Raytest IsotopenmeBgerate GmbH, Straubenhardt, Germany).
Besides PP2A, tau phosphorylation is also regulated by several protein kinases. The levels of several tau protein kinases have been reported to be altered after anesthesia. We therefore determined the levels of the total and the activated form of several tau protein kinases, including glycogen synthase kinase-3β (GSK-3β), mitogen-activated protein kinase/extracellular signal-regulated kinase (MAPK/ERK), cyclin-dependent kinase 5 (cdk5), calcium/calmodulin-dependent protein kinase II (CaMKII), and c-Jun N-terminal kinase (JNK).

PP2A = assay: Western blot of PP2A-C level, methylation and Tyr307 phosphorylation in brain; format: in vivo, 3xTg-AD mice; conditions: intranasal insulin 7 days before propofol
Method: (§2) The 3xTg-AD mice and WT mice (female, 9 months old) used for the present study were habituated to handling for 14 days prior to the experiment. Female mice were used because the female 3xTg-AD mice develop behavioral deficits faster than the male mice. The selection of the age of 9 months was because the 3xTg-AD mice at this age show neurogenic and neuroplastic deficits but no NFTs or amyloid plaques and are cognitively impaired. Intranasal delivery was carried out manually without anesthesia while the mouse head was restrained in a supine position with the neck in extension, as described. A total of 1.75 U/17.5 μl insulin or 0.9% saline (Veh 1) was delivered over both nares alternatively using a 10 μl Eppendorf pipetter. The mouse was held for an additional 5-10 seconds to ensure the fluid was inhaled. […]
(§3) Mouse brain tissue was homogenized in pre-chilled buffer containing 50 mM Tris-HCl (pH 7.4), 50 mM GlcNAc, 20 μM UDP, 2.0 mM EGTA, 2 mM Na3VO4, 50 mM NaF, 20 mM Glycero-phosphate, 0.5 mM AEBSF, 10 μg/ml aprotinin, 10 μg/ml leupeptin, and 4 μg/ml pepstatin A. Protein concentrations of the homogenates were determined by using modified Lowery method. […] Densitometrical quantification of protein bands in Western blots were analyzed by using the TINA software (Raytest IsotopenmeBgerate GmbH, Straubenhardt, Germany).

tau phosphorylation = assay: Western blot of tau phosphorylation in brain homogenates of 3xTg-AD mice; format: in vivo; conditions: intranasal insulin 1.75 U daily 7 days before propofol, 30 min following propofol
Method: as §2, §3

brain insulin signaling = assay: Western blot of brain insulin signaling components; format: in vivo, 3xTg-AD mice; conditions: intranasal insulin 7 days prior to propofol; 3xTg-ins/prop vs 3xTg-veh1/prop
Method: as §2, §3

phosphorylated tau = assay: Immunohistochemical staining of brain sections with 12E8 and PHF-1; format: in vivo, 3xTg-AD mice; conditions: frontal cortex; 30 min after propofol; 3xTg-ins/prop vs 3xTg-veh1/prop
Method: as §1

old wild type mice = assay: Morris water maze (MWM) test after anesthesia
Method: This paradigm of anesthesia is similar to that used clinically for surgical patents in the U.S. The cognitive function of the mice was assessed starting on the next day by using the Morris water maze (MWM) test, a widely used cognitive test for rodents.
Probe testing was carried out on the following day after four-day training and was used to evaluate the retrieval of spatial memory.

[3] = insulin treatment before anesthesia vs anesthesia alone

Compound	average rectal temperature ([1]; two hours after propofol injection (250 mg/kg i.p.)) [°C]	average rectal temperature ([1]; within 30 min after propofol injection (250 mg/kg i.p.), from around 38.2° C.) [°C]	GSK-3β and ERK ([2]; after anesthesia with propofol)	JNK ([2]; after anesthesia with propofol)	a few other tau kinases ([2]; after anesthesia with propofol)	inhibitory Ser9 phosphorylation of GSK-3β ([2]; after anesthesia with propofol)	net PP2A methylation (PP2A; after normalization with the PP2A-C level)	level and methylation of PP2A in the mouse brain (PP2A; normalized with GAPDH, vs 3xTg-veh1/prop)	body temperature, insulin-treated vs untreated mice ([1]; during propofol anesthesia, intranasal insulin 7 days before)	phosphorylation level of tau at Thr212, Ser262/356 (12E8 sites), Ser396/404 (PHF-1 sites), Ser409 (tau phosphorylation; 3xTg-ins/prop vs 3xTg-veh1/prop)	phosphorylation level of tau at Thr181, Ser199, Thr205, Thr231, Ser422 (tau phosphorylation; insulin-treated vs untreated)	levels of IRβ, IGF-1Rβ, IRβ pY1150/1151, IRS1 pS307, PI3K p85 pY458, PI3K p55 pY199, PDK1, AKT and AKT pT308 (brain insulin signaling)	CDK5, CaMKII pT286 and JNK pT184/pY185 ([2]; intranasal insulin treatment, propofol-treated mouse brains)	number of strongly stained neurons (12E8, PHF-1) (phosphorylated tau)	swimming speeds (old wild type mice; among the four groups (control, anesthesia, insulin+anesthesia, insulin))	number of platform location crossing during probe test (old wild type mice; [3])	time to reach the platform location during probe test (old wild type mice; [3])	spatial learning (old wild type mice; insulin treatment to control mice without anesthesia)	learning performance (time to reach the platform, four training days) (old wild type mice; intranasal insulin 1.75 IU/mouse/day for 7 days before one-time anesthesia)
CC(C)c1cccc(C(C)C)c1O [propofol]	25.6	28.6	inhibition	activation	moderate alterations	dramatic increase													
Insulin							not increased	significant increase	no difference	significantly lower	the decreases did not reach statistical significance	up-regulated	mild to moderate reductions	markedly reduced	not different	increased	decreased	did not affect spatial learning significantly	as good as control mice
